This note sets out measurements from PMC6320956, “O-Aminoalkyl-O-Trimethyl-2,3-Dehydrosilybins: Synthesis and In Vitro Effects Towards Prostate Cancer Cells” (Molecules, 2018).

Assay [1] deals with prostate cancer cell lines (LNCaP, PC-3 and DU145). The experiment in a line: WST-1 cell proliferation assay, three prostate cancer cell lines together. It is filed as cell-based, human. Conditions: range for the five optimal derivatives over PC-3, DU145, LNCaP; for IC50: Homo sapiens. An excerpt:
As part of our ongoing silybin project, this study aims to introduce a basic nitrogen-containing group to 7-OH of 3,5,20-O-trimethyl-2,3-dehydrosilybin or 3-OH of 5,7,20-O-trimethyl-2,3-dehydrosilybin via an appropriate linker for in vitro evaluation as potential anti-prostate cancer agents. The synthetic approaches to 7-O-substituted-3,5,20-O-trimethyl-2,3-dehydrosilybins through a five-step procedure and to 3-O-substituted-5,7,20-O-trimethyl-2,3- dehydrosilybins via a four-step transformation have been developed. Thirty-two nitrogen-containing derivatives of silybin have been achieved through these synthetic methods for the evaluation of their antiproliferative activities towards both androgen-sensitive (LNCaP) and androgen-insensitive prostate cancer cell lines (PC-3 and DU145) using the WST-1 cell proliferation assay. […] All these five optimal derivatives can arrest the PC-3 cell cycle in the G0/G1 phase and promote PC-3 cell apoptosis.
(§1) PC-3, DU145, or LNCaP cells were plated in 96-well plates at a density of 3,200 per well in 200 µL of culture medium. The cells were then separately treated with silibinin, or synthesized silibinin derivatives, at five different doses for three days, while equal treatment volumes of DMSO (0.25%) were used as the vehicle control. The cells were cultured in a CO2 incubator at 37 °C for three days. A total of 10 µL of the premixed WST-1 cell proliferation reagent (Clontech) was added to each well. After mixing gently for one min on an orbital shaker, the cells were incubated for an additional 3 h at 37 °C. To ensure a homogeneous distribution of color, it is important to mix gently on an orbital shaker for one min. The absorbance of each well was measured using a microplate reader (Synergy HT, BioTek, Winooski, VT, USA) at a wavelength of 430 nm. […] For calculating the IC50 values, a linear proliferative inhibition was made based on at least five dosages for each compound.
In summary, six 7-O-aminoalkyl-3,5-20-O-trimethyl-2,3-dehydrosilybins and 26 3-O-aminoalkyl-5,7,20-O-trimethyl-2,3-dehydrosilybins have been successfully synthesized through a five-step and four-step sequence, respectively. The synthetic methods can be used for the general synthesis of 7-O-substituted-3,5,20-O-trimethyl-2,3-dehydrosilybins and 3-O-substituted-5,7,20-O- trimethyl-2,3-dehydrosilybins. The antiproliferative activities of the 32 derivatives against three prostate cancer cell lines have been evaluated using the WST-1 cell proliferation assay. […] All these five optimal derivatives can cause PC-3 cell accumulation in a G0/G1 phase by increasing the cell population in this phase at 16 h. Derivatives 11, 37, and 40 show a stronger ability than derivatives 29 and 31 in activating PC-3 cell apoptosis by inducing appreciable levels of apoptotic cell death at a 5 µM concentration after 16 h of treatment.
A general note: Formazan colour is commonly taken as a measure of viable cells.

A further assay relates to LNCaP cells. The experiment in a line: WST-1 cell proliferation assay, LNCaP. The class given is cell-based, human. To be noted: for IC50: WST-1, three days of exposure, mean ± SD, n = 3. How it is done: (§2) The in vitro antiproliferative activities of six 7-O-substituted and 26 3-O-substituted silybin derivatives were evaluated using the WST-1 cell proliferation assay, according to the procedure as described in the Experimental Section in both androgen-sensitive (LNCaP) and androgen-insensitive (PC-3 and DU145) human prostate cancer cell lines. Silibinin and docetaxel were used as a positive control for comparison in the parallel experiments and the IC50 values calculated from the dose-response curves are summarized in Table 1. […] A three-carbon linker in 11 and 29, as well as a five-carbon linker in 31, 37 and 40, are beneficial to the potency.
(§3) All cell lines were initially purchased from American Type Culture Collection (ATCC^TM) (Manassas, VA, USA). The PC-3 and LNCaP prostate cancer cell lines were routinely cultured in RPIM-1640 medium supplemented with 10% FBS and 1% penicillin/streptomycin. The DU145 prostate cancer cells were routinely cultured in Eagle’s Minimum Essential Medium (EMEM) supplemented with 10% FBS and 1% penicillin/streptomycin. Cultures were maintained in a high humidity environment supplemented with 5% carbon dioxide at a temperature of 37 °C.
as §1

Assay [2] deals with MCF 10A non-neoplastic human mammary epithelial cell line. Description: WST-1 cell proliferation assay, MCF 10A non-neoplastic cells. It is filed as cell-based. To be noted: Homo sapiens, MCF-10A, 72 h; WST-1, three days of exposure, mean ± SD, n = 3. Here is the method:
(§4) Silibinin and five potent derivatives (11, 29, 31, 37, and 40) were selected for further evaluation against the MCF 10A non-neoplastic human mammary epithelial cell line and PWR-1E non-neoplastic human prostate epithelial cells.
as §1

Assay [3] concerns PC-3 cells. Description: F2N12S and SYTOX AADvanced double staining apoptosis assay. It is filed as cell-based, human. To be noted: for maximum apoptotic cell population: 50 µM; for apoptotic cell death: up to a 10 µM concentration.
Assay [4] deals with PC-3 cells. Description: WST-1 cell proliferation assay, PC-3. It is filed as cell-based, human. To be noted: for IC50: WST-1, three days of exposure, mean ± SD, n = 3. How it is done:
as §2, §3, §1

For assay [5], the system named is PWR-1E non-neoplastic human prostate epithelial cells. The experiment in a line: WST-1 cell proliferation assay, PWR-1E non-neoplastic cells. The class given is cell-based. To be noted: Homo sapiens, PWR-1E, 72 h; WST-1, three days of exposure, mean ± SD, n = 3. Here is the method: as §4, §1
In assay [6] the test system is PC-3 cells. The experiment in a line: Cell cycle analysis by flow cytometry (propidium iodide). The class given is cell-based, human. Conditions: 20 µM, 16 h; controls 55.7% (11), 36.2% (29), 33.1% (31, 37, 40). Here is the method: Silibinin can arrest the rat (H-7 and I-8) and human prostate cancer cell (LNCaP) cycle at the G1 phase, and cause G1 and G2-M PC-3 prostate cancer cell cycle arrest.
PC-3 cells were plated in 24-well plates at a density of 200,000 per well in 400 µL of culture medium. […] […] Both attached and floating cells were collected in a centrifuge tube by centrifugation at an rcf value of 450 g for 5 min. After discarding the supernatant, the collected cells were re-suspended with 500 µL 80% cold ethanol to fix them for 30 min in 4 °C. The fixed cells could be stored at −20 °C for one week. After fixation, the ethanol was removed after centrifuging and the cells were washed with PBS. The cells were then re-suspend with 100 μL of […] ribonuclease and were cultured at 37 °C for 30 min to degrade all RNA. The cells were stained with 200 μL of 50 μg/mLpropidium iodide stock solution for 30 min at […], and then the fluorescence intensity of PI was detected in individual PC-3 cells using an Attune flow cytometer (Life Technologies, Carlsbad, CA, USA) within 0.5 to 1 h after staining.
On the technique in general: Flow cytometry measures light scatter and fluorescence of single cells or particles in a stream.

The test system of a further assay is DU145 cells. The experiment in a line: WST-1 cell proliferation assay, DU145. Conditions: for IC50: Homo sapiens, DU-145, 72 h, WST-1, three days of exposure, mean ± SD, n = 3. It is filed as cell-based, human. Here is the method: as §2, §3, §1
[7] abbreviates: 10 µM, 16 h, range over 11, 37, 40.
Where [8] appears, read: 20 µM, 16 h, range over 11, 37, 40.
Where [9] appears, read: fold potency relative to silibinin.

The structures appear in SMILES notation.

The term IC50 denotes the concentration at which inhibition is half-maximal. In the case of `CCCCN(CCCC)CCCOc1c(-c2ccc3c(c2)OC(c2ccc(OC)c(OC)c2)C(CO)O3)oc2cc(OC)cc(OC)c2c1=O` (stereo not shown) [Compound 29], the IC50 was 1400 to 3060 nM in assay [1]; not above 3000 nM in the assay on LNCaP cells (Homo sapiens, LNCaP, 72 h); 2210 ± 170 nM in the assay on LNCaP cells; less than 5000 nM in assay [2]; not above 3000 nM in the assay on PC-3 cells [4] (Homo sapiens, PC-3, 72 h); 2730 ± 120 nM in the assay with PC-3 cells [4]. For the same molecule, the IC50 in assay [5] was less than 5000 nM; in the assay with DU145 cells, 2510 ± 40 nM. For the same molecule, the “fold improvement in potency compared to silibinin” value (from here on “fold improvement in potency”) in assay [1] is given as 17- to 52 fold. Moreover, the “maximum apoptotic cell population” value with PC-3 cells [3] (16 h) worked out at 71%. In addition, the apoptotic cell death entry in the assay on PC-3 cells [3] (16 h) is given as “less than 10%”. In the assay with PC-3 cells [6], the “PC-3 cell population in G0/G1 phase” value turned out to be 50.3%.
For the molecule `CCCCN(CCCC)CCCCCOc1c(-c2ccc3c(c2)OC(c2ccc(OC)c(OC)c2)C(CO)O3)oc2cc(OC)cc(OC)c2c1=O` (stereo not shown) [Compound 31], the IC50 in assay [1] is 1400 to 3060 nM; in the assay on LNCaP cells (Homo sapiens, LNCaP, 72 h), not above 3000 nM; with LNCaP cells, 2510 ± 310 nM; in assay [2] it was less than 5000 nM; in the assay with PC-3 cells [4] (Homo sapiens, PC-3, 72 h), not above 3000 nM; in the assay with PC-3 cells [4] it was 2840 ± 100 nM. Further, the 50% inhibitory concentration (IC50) in assay [5] was less than 5000 nM; in the assay on DU145 cells, 2850 ± 230 nM. Also, the “fold improvement in potency” value in assay [1] is 17- to 52 fold. Also, the “maximum apoptotic cell population” value with PC-3 cells [3] (16 h) worked out at 95%. Moreover, the apoptotic cell death entry in the assay on PC-3 cells [3] (16 h) is on record as “less than 10%”. Also, the “PC-3 cell population in G0/G1 phase” value in the assay on PC-3 cells [6] came out at 35.9%.
For `COc1cc(OC)c2c(=O)c(OCCCCCN3CCOCC3)c(-c3ccc4c(c3)OC(c3ccc(OC)c(OC)c3)C(CO)O4)oc2c1` (stereo not shown) [Compound 40], the IC50 in assay [1] was 1400 to 3060 nM; in the assay on LNCaP cells (Homo sapiens, LNCaP, 72 h) it was not above 3000 nM; in the assay with LNCaP cells, 2230 ± 180 nM; in assay [2], less than 5000 nM; in the assay with PC-3 cells [4] (Homo sapiens, PC-3, 72 h), not above 3000 nM; in the assay on PC-3 cells [4], 2720 ± 80 nM. In addition, the IC50 in assay [5] is less than 5000 nM; with DU145 cells it was 3060 ± 130 nM. The “fold improvement in potency” value in assay [1] is 17- to 52 fold. Moreover, in the assay on PC-3 cells [3] (5 µM, 16 h, range over 11, 37, 40), the “early phase apoptosis in PC-3 cells” value is listed as 26–59%. Also, the early apoptotic cells in the assay on PC-3 cells [3] (setting [7]) was 56–76%; with PC-3 cells [3] (setting [8]) it was 54–75%. For the same molecule, the late apoptotic/necrotic cells is on record as 6–40% with PC-3 cells [3] (setting [7]) and 16–44% in the assay with PC-3 cells [3] (setting [8]). Further, the “concentration at which the apoptotic cell population reached its maximum” value in the assay with PC-3 cells [3] (PC-3, 16 h) is 30 µM. The “PC-3 cell population in G0/G1 phase” value with PC-3 cells [6] amounted to 43.4%.
In the case of `CC(=O)O[C@@]12CO[C@@H]1C[C@H](O)[C@@]1(C)C(=O)[C@H](O)C3=C(C)[C@@H](OC(=O)[C@H](O)[C@@H](NC(=O)OC(C)(C)C)c4ccccc4)C[C@@](O)([C@@H](OC(=O)c4ccccc4)[C@H]21)C3(C)C` [Docetaxel, docetaxel, reference compound], the IC50 in the assay with LNCaP cells (Homo sapiens, LNCaP, 72 h) is 0.2 ± 0.1 nM; in the assay with PC-3 cells [4] (Homo sapiens, PC-3, 72 h), 1.9 ± 0.6 nM; in the assay on DU145 cells, 1.2 ± 0.3 nM.
As to `COc1cc(OC)c2c(=O)c(OCCCCCN3CCNCC3)c(-c3ccc4c(c3)OC(c3ccc(OC)c(OC)c3)C(CO)O4)oc2c1` (stereo not shown) [Compound 43], the IC50 was found to be 14400 ± 7490 nM in the assay on LNCaP cells (Homo sapiens, LNCaP, 72 h); 7870 ± 1470 nM in the assay on PC-3 cells [4] (Homo sapiens, PC-3, 72 h); 48100 ± 16300 nM with DU145 cells. For the same molecule, the “IC50 (Silibinin)/IC50(Derivative) LNCaP” value in the assay with LNCaP cells (setting [9]) was 3. For the same molecule, the “IC50 (Silibinin)/IC50(Derivative) PC-3” value with PC-3 cells [4] (setting [9]) stood at 9. Moreover, the “IC50 (Silibinin)/IC50(Derivative) DU145” value in the assay on DU145 cells (setting [9]) is 2.
